Results: ChEMBL document CHEMBL1782038, “Heterocyclic replacement of the central phenyl core of diamine-based histamine H3 receptor antagonists” (Eur J Med Chem, 2009)

Experiments:
Rattus norvegicus = species on record: Rattus norvegicus; settings: in vivo, po, 10 mg/kg
in vivo [1] = settings: Sprague-Dawley, rat, po, 10 mg/kg
in vivo [2] = settings: Sprague-Dawley, rat, iv, 1 mg/kg
in vivo [3] = settings: Sprague-Dawley, rat, po, 10 mg/kg; remark: listed apart in the source
in vivo [4] = settings: Sprague-Dawley, rat, iv, 1 mg/kg; remark: listed apart in the source
in vivo [5] = settings: Sprague-Dawley, rat, po, 10 mg/kg; remark: listed apart in the source
in vivo [6] = settings: Sprague-Dawley, rat, po, 10 mg/kg; remark: listed apart in the source
in vivo [7] = settings: Sprague-Dawley, rat, iv, 1 mg/kg; remark: listed apart in the source

CC(C)N1CCN(C(=O)c2ccc(CN3CCCCC3)cc2)CC1 gave a Vz (Rattus norvegicus) of 41.1 L, a half-life (in vivo [1]) of 33.6 h and a half-life (in vivo [2]) of 13.8 h. For the same molecule, the Tmax (in vivo [3]) was 1.7 h, the Vd (in vivo [4]) was 10.6 L and the bioavailability (in vivo [5]) was 54%. For the same molecule, the CL/F (in vivo [6]) was 18.3 mL/min and the clearance (in vivo [7]) was 9.67 mL/min.
